# Values of other authors in US7422793B2, “Non-toxic corrosion-protection rinses and seals based on rare earth elements” (University of Dayton, priority 2002, dated 2008).
# Conditions: fluoride preparative agents; at or near 25° C. and at or near pH 7; cited from earlier work
row,Molecule,Solubility in Water
1,F[Si-2](F)(F)(F)(F)F.[K+].[K+] [Potassium hexafluorosilicate],0.0055 mol/L
2,F[Si-2](F)(F)(F)(F)F.[Li+].[Li+] [Lithium hexafluorosilicate],3.8 × 10^0 mole/L
3,F[Si-2](F)(F)(F)(F)F.[Mg+2] [Magnesium hexafluorosilicate],3.9 × 10^0 mole/L

# Same assay, conditions: pH 7; cited from earlier work
row,Molecule,Solubility in Water
1,O=C(O)c1ccccc1C(=O)OO [Monoperoxyphthalic acid],10 mol/L
2,O=[Te](=O)([O-])[O-].[Li+].[Li+] [Lithium tellurate],1 × 10^0 mole/L
3,[Na+].[Na+].[O]=[Mo](=[O])([O-])[O-] [Sodium molybdate],215 mol/L
4,[Ca+2].[O-][Cl+2]([O-])[O-].[O-][Cl+2]([O-])[O-] [Calcium chlorate],7.4 × 10^0 mole/L
5,Rubidium germanate,0.5 mol/L
6,Magnesium hexaniobate,0.088 mol/L
7,[O]=[W](=[O])([OH])[OH] [Tungstic acid],0.8 mol/L
8,[Li+].[Li+].[O]=[Sn]([O-])[O-] [Lithium stannate],5 × 10^0 mole/L
9,[O-][I+2]([O-])O[I+2]([O-])[O-] [Iodine pentoxide],5.6 × 10^0 mole/L
10,[K+].[O-][I+3]([O-])([O-])[O-] [Potassium periodate],0.029 mol/L
11,[K+].[K+].[O]=[Sn]([O-])[O-] [Potassium stannate],3.7 × 10^0 mole/L
12,Chloroperoxybenzoic acid,10 mol/L
13,F[Si-2](F)(F)(F)(F)F.[Ag+].[Ag+] [Silver (I) hexafluorosilicate],1 × 10^0 mole/L
14,[K+].[O-2].[O-2].[O-2].[Ta+5] [Potassium tantalate],0.005 mol/L
15,[Ce+4].[O-][Cl+3]([O-])([O-])[O-].[O-][Cl+3]([O-])([O-])[O-].[O-][Cl+3]([O-])([O-])[O-].[O-][Cl+3]([O-])([O-])[O-] [Cerium (IV) perchlorate],1.0 × 10^0 mole/L
16,[Cs+].[Cs+].[F][Ta-2]([F])([F])([F])([F])([F])[F] [Cesium heptafluorotantalate],0.3 mol/L
17,[F][Al-3]([F])([F])([F])([F])[F].[Na+].[Na+].[Na+] [Sodium hexafluoroaluminate],0.0029 mol/L
18,[O-][Cl+3]([O-])([O-])[O-].[O-][Cl+3]([O-])([O-])[O-].[Sr+2] [Strontium perchlorate],13 mol/L
19,Zinc nitrite,1 × 10^0 mole/L
20,Rubidium periodate,0.024 mol/L

row,Molecule,Solubility in Water
1,[F][Ta-2]([F])([F])([F])([F])([F])[F].[Li+].[Li+] [Lithium heptafluorotantalate],0.5 mol/L
2,O=[Se](=O)(O)O [Selenic acid],60 wt. %
3,Rubidium tellurate,0.01 mol/L
4,Rubidium bromate,0.14 mol/L
5,O=N[O-].[K+] [Potassium nitrite],35 mol/L
6,[O]=[Mo](=[O])([OH])[OH] [Molybdic acid],0.0074 mol/L
7,[F][Ge-2]([F])([F])([F])([F])[F].[Na+].[Na+] [Sodium hexafluorogermanate],0.01 mol/L
8,F[Si-2](F)(F)(F)(F)F.[Ca+2] [Calcium hexafluorosilicate],0.5 mol/L
9,Strontium nitrite,3.8 × 10^0 mole/L
10,[Cs+].[Cs+].[O]=[Mo](=[O])([O-])[O-] [Cesium molybdate],4.8 × 10^0 mole/L
11,O=N[O-].[Li+] [Lithium nitrite],28 mol/L
12,[Mg+2].[O-][Cl+3]([O-])([O-])[O-].[O-][Cl+3]([O-])([O-])[O-] [Magnesium perchlorate],4.4 × 10^0 mole/L
13,Rubidium hexafluorozirconate,0.0848 mol/L
14,[F][Nb-2]([F])([F])([F])([F])([F])[F].[Na+].[Na+] [Sodium heptafluoroniobate],0.05 mol/L
15,CC[N+](CC)(CC)CC.[O-][Cl+3]([O-])([O-])[O-] [Et4N^+ perchlorate],0.5 mol/L
16,[O-][Cl+3]([O-])([O-])[O-].[O]=[Bi+] [Bismuthyl perchlorate],0.1 mol/L
17,[Cs+].[Cs+].[F][Nb-2]([F])([F])([F])([F])([F])[F] [Cesium heptafluoroniobate],0.3 mol/L
18,[Cs+].[Cs+].[O]=[Sn]([O-])[O-] [Cesium stannate],1 × 10^0 mole/L
19,[Na+].[O-2].[O-2].[O-2].[Ta+5] [Sodium tantalate],0.0055 mol/L
20,[Li+].[O-][Cl+3]([O-])([O-])[O-] [Lithium perchlorate],5.6 × 10^0 mole/L

row,Molecule,Solubility in Water
1,[Cs+].[Cs+].[F][Ge-2]([F])([F])([F])([F])[F] [Cesium hexafluorogermanate],0.047 mol/L
2,F[B-](F)(F)F.[K+] [Potassium tetrafluoroborate],0.035 mol/L
3,[F][Hf-2]([F])([F])([F])([F])[F].[Na+].[Na+] [Sodium hexafluorohafnate],0.07 mol/L
4,[Cs+].[O]=[V](=[O])[O-] [Cesium vanadate],0.5 mol/L
5,Potassium superoxide,1 × 10^0 mole/L
6,[F][Sn-2]([F])([F])([F])([F])[F].[Li+].[Li+] [Lithium hexafluorostannate],0.01 mol/L
7,[Cs+].[O-][Cl+3]([O-])([O-])[O-] [Cesium perchlorate],0.086 mol/L
8,Strontium bromate,0.91 mol/L
9,[F][Zr-2]([F])([F])([F])([F])[F].[Na+].[Na+] [Sodium hexafluorozirconate],0.06 mol/L
10,[Cs+].[O-][Cl+2]([O-])[O-] [Cesium chlorate],0.29 mol/L
11,Potassium arsenate,0.74 mol/L
12,Rubidium stannate,5 × 10^0 mole/L
13,O=N[O-].O=N[O-].[Mg+2] [Magnesium nitrite],1 × 10^0 mole/L
14,[F][Ta-2]([F])([F])([F])([F])([F])[F].[Na+].[Na+] [Sodium heptafluorotantalate],0.05 mol/L
15,O[Te](O)(O)(O)(O)O [Telluric acid],0.5 mol/L
16,[F][Ge-2]([F])([F])([F])([F])[F].[Li+].[Li+] [Lithium hexafluorogermanate],1 × 10^0 mole/L
17,[Li+].[Li+].[O-][O-] [Lithium peroxide],1 × 10^0 mole/L
18,[F][Sb]([F])([F])([F])[F] [Antimony (V) fluoride],1 × 10^0 mole/L
